ChEMBL document CHEMBL1145879, “Phosphonooxymethyl prodrugs of the broad spectrum antifungal azole, ravuconazole: synthesis and biological properties” (Bioorg Med Chem Lett, 2003)
In brackets after ≈: the same amount, converted by molar mass.

What was measured:
Type in all cases: physicochemical
[1] = Aqueous solubility at pH 6.6
[2] = Aqueous solubility at pH 7
[3] = Aqueous solubility was determined; conditions: buffer

C[C@@H](c1nc(-c2ccc(C#N)cc2)cs1)[C@](O)(Cn1c[n+](COP(=O)([O-])O)cn1)c1ccc(F)cc1F
solubility [1]: > 30 µg/mL

C[C@@H](c1nc(-c2ccc(C#N)cc2)cs1)[C@@](Cn1cncn1)(OCOP(=O)(O)O)c1ccc(F)cc1F [FOSRAVUCONAZOLE]
solubility [2]: > 30 µg/mL

C[C@@H](c1nc(-c2ccc(C#N)cc2)cs1)[C@](O)(Cn1cncn1)c1ccc(F)cc1F [RAVUCONAZOLE]
solubility [3]: 0.6 µg/mL (≈ 1.37 µM)
